According to ChEMBL document CHEMBL5042510, “Structure-Guided Discovery of Aminoquinazolines as Brain-Penetrant and Selective LRRK2 Inhibitors” (J Med Chem, 2022):

Experiments:
[1] = molecular target: Leucine-rich repeat serine/threonine-protein kinase 2 (Homo sapiens, UniProt Q5S007, G2019S); assay: Inhibition of recombinant N-terminal GST-fused LRRK2 […] mutant (970 to 2527 residues) (unknown origin) preincubated with enzyme for 15 mins followed by fluorescein-labeled LRRKtide peptide substrate and ATP addition for 90 mins by TR-FRET assay
Chain of Leucine-rich repeat serine/threonine-protein kinase 2 (Q5S007 whole entry G2019S, the tested form may be a part): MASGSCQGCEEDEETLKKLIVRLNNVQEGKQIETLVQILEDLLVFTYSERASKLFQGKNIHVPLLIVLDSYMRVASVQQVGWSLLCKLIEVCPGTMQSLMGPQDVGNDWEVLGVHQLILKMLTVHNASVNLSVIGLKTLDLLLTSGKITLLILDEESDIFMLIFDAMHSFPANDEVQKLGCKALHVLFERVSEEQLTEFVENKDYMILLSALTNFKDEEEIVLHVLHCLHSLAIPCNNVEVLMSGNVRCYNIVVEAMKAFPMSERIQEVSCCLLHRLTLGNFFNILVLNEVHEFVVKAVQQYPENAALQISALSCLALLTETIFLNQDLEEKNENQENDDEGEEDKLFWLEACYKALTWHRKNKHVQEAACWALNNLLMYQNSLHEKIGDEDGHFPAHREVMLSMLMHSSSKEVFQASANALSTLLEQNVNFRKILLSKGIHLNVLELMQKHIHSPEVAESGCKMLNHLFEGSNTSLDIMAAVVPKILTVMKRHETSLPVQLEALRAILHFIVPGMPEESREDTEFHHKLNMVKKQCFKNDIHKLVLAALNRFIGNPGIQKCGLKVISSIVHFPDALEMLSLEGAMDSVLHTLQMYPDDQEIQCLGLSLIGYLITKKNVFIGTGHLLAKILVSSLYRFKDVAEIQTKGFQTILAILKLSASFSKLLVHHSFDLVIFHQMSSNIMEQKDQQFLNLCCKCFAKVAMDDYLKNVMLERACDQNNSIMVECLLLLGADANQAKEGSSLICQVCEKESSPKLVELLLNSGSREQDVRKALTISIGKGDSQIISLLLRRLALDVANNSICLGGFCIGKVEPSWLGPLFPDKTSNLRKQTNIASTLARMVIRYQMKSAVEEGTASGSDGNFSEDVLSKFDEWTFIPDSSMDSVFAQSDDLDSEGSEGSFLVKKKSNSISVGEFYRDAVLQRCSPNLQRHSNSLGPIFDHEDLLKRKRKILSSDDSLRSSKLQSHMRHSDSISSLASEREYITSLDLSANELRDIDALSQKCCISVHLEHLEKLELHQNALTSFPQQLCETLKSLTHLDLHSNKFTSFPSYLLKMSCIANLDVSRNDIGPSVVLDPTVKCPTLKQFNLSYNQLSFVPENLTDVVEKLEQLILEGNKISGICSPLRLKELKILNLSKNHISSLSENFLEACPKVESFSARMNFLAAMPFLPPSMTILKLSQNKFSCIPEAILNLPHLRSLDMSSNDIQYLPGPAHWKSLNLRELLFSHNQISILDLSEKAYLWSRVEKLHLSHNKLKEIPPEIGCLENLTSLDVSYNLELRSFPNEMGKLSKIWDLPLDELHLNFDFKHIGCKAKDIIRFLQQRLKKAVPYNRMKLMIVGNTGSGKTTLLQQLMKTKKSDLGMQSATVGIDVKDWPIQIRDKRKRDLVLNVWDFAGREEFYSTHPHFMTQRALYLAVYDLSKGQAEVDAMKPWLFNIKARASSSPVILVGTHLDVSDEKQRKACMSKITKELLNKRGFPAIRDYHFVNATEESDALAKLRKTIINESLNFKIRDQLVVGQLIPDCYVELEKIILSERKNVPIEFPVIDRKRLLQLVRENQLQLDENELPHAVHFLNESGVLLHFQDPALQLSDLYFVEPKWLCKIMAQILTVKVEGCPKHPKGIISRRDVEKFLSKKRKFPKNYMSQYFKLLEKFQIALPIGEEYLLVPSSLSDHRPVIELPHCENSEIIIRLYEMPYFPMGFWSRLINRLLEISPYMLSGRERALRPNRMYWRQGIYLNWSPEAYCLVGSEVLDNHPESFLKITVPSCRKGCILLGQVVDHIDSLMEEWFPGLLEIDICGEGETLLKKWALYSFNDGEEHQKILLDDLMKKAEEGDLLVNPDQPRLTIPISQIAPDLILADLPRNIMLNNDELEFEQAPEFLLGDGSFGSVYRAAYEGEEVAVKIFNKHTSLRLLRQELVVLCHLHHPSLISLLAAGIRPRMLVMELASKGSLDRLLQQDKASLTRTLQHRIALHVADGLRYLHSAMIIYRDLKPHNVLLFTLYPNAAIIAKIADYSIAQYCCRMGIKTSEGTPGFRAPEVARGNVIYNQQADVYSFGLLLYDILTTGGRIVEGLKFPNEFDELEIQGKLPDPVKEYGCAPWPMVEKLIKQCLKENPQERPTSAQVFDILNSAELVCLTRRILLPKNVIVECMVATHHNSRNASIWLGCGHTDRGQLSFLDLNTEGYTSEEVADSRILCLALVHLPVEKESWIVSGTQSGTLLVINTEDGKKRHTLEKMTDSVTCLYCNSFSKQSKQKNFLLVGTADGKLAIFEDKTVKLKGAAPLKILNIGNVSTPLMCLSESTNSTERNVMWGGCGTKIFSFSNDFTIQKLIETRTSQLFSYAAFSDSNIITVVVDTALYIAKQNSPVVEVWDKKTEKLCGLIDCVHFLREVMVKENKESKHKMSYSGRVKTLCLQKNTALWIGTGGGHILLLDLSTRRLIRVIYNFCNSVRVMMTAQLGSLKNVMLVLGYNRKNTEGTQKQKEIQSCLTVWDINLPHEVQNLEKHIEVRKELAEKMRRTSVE

[2] = test system: Leucine-rich repeat serine/threonine-protein kinase 2 (Homo sapiens), Q5S007 [G2019S]; assay: Inhibition of LRRK2 […] mutant expressed in human SH-SY5Y cells assessed as unbound concentration required for inhibition of phosphorylation of LRRK2 at Ser935 residue incubated for 90 mins by MSD assay; assay type: cell-based
Chain of Leucine-rich repeat serine/threonine-protein kinase 2 (Homo sapiens), Q5S007 [G2019S] (Q5S007 whole entry G2019S): as the sequence (Q5S007 whole entry G2019S, the tested form may be a part) above

[3] = Intrinsic clearance in human hepatocytes at 0.3 uM incubated for 90 mins by LC/MS/MS analysis; assay type: ADME, cell-based, Hepatocyte; details: read-out: CLH
[4] = Intrinsic clearance in rat hepatocytes at 0.3 uM incubated for 90 mins by LC/MS/MS analysis; assay type: ADME, cell-based, Hepatocyte; details: read-out: CLH
[5] = Total plasma clearance in Wistar Han rat at 0.1 mg/kg, iv by LC-MS/MS analysis; assay type: ADME, organism-based
[6] = Intrinsic clearance in Wistar Han rat at 0.1 mg/kg, iv by LC-MS/MS analysis; assay type: ADME, organism-based; details: in vivo
[7] = MRT in Wistar Han rat at 0.1 mg/kg, iv by LC-MS/MS analysis; assay type: ADME, organism-based; details: in vivo
[8] = molecular target: Voltage-gated inwardly rectifying potassium channel KCNH2 (Homo sapiens, UniProt Q12809); assay: Inhibition of human ERG by voltage clamp assay; assay type: toxicity
Chain of Voltage-gated inwardly rectifying potassium channel KCNH2 (Q12809 whole entry): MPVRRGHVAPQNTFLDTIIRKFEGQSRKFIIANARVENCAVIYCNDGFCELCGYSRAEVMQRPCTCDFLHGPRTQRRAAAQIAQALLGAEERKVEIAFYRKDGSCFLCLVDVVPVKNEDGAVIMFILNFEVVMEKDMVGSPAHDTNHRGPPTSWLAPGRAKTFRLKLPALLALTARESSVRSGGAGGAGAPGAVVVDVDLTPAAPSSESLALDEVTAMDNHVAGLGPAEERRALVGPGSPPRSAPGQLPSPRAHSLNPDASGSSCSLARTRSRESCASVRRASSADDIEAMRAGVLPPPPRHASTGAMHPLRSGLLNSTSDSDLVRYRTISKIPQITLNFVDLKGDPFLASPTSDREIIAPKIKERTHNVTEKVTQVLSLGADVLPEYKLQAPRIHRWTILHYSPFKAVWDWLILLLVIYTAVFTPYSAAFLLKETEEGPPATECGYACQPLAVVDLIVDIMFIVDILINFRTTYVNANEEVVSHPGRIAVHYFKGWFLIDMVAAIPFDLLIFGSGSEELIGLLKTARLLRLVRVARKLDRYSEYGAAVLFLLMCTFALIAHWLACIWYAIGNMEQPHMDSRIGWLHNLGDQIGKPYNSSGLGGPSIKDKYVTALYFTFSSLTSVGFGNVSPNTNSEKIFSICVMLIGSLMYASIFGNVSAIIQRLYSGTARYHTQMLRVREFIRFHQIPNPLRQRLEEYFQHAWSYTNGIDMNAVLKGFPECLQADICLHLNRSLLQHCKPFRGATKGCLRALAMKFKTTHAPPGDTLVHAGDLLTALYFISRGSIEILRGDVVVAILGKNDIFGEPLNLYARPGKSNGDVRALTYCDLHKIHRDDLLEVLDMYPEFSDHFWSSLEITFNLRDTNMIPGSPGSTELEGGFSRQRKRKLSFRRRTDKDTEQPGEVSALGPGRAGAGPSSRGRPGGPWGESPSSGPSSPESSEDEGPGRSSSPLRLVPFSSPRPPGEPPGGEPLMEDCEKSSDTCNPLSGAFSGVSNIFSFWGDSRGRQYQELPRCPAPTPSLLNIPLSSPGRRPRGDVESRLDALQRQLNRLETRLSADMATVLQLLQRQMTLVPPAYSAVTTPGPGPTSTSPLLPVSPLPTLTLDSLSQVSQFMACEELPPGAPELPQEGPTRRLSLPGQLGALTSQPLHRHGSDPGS

rat Mdr1a (P-gp) [9] = assay: Efflux ratio of apparent permeability across basolateral to apical side over apical to basolateral side in rat Mdr1a-transfected pig LLC-PK1 cells at 0.1 to 1 uM measured after 3 hrs by LC/MS/MS analysis; assay type: ADME, cell-based, Sus scrofa; details: dose 0.1-1 µM
rat Mdr1a (P-gp) [10] = assay: Apparent permeability from apical to basolateral side in rat Mdr1a-transfected pig LLC-PK1 cells at 0.1 to 1 uM measured after 3 hrs by LC/MS/MS analysis; assay type: ADME, cell-based, Sus scrofa; details: dose 0.1-1 µM
[11] = Lipophilicity, logD of the compound by HPLC analysis; assay type: physicochemical
human MDR1 (P-gp) = assay: Efflux ratio of apparent permeability across basolateral to apical side over apical to basolateral side in human MDR1-transfected dog MDCKII-MDR1 cells at 0.1 to 1 uM measured after 3 hrs by LC/MS/MS analysis; assay type: ADME, cell-based, Canis lupus familiaris; details: MDCK-MDR1, dose 0.1-1 µM
[12] = Unbound brain-to-plasma concentration ratio in rat at 2.5 uM incubated for 4 hrs by equilibrium dialysis method; assay type: ADME, cell-free; details: brain and plasma (unbound), read-out: K(p,uu,brain)
[13] = Unbound brain-to-plasma concentration ratio in non-human primates administered orally and measured after 120 mins by LC/MS/MS analysis; assay type: ADME; details: po, read-out: K(p,uu,brain)
[14] = Total plasma clearance in Wistar Han rat at 2 mg/kg, iv by LC-MS/MS analysis; assay type: ADME, organism-based
[15] = Intrinsic clearance in Wistar Han rat at 2 mg/kg, iv by LC-MS/MS analysis; assay type: ADME, organism-based; details: in vivo
[16] = MRT in Wistar Han rat at 2 mg/kg, iv by LC-MS/MS analysis; assay type: ADME, organism-based; details: in vivo
[17] = Intrinsic clearance in dog hepatocytes at 0.3 uM incubated for 90 mins by LC/MS/MS analysis; assay type: ADME, cell-based, Canis lupus familiaris, Hepatocyte; details: read-out: CLH
[18] = Oral bioavailability in Wistar Han rat at 10 mg/kg by LC-MS/MS analysis; assay type: ADME, organism-based; details: in vivo
mouse Bcrp = assay: Efflux ratio of apparent permeability across basolateral to apical over apical to basolateral side in mouse Bcrp-transfected dog MDCK-II cells at 0.1 to 1 uM measured after 3 hrs by LC/MS/MS analysis; assay type: ADME, cell-based, Canis lupus familiaris; details: dose 0.1-1 µM
[19] = Total plasma clearance in Beagle dog at 2 mg/kg, iv by LC-MS/MS analysis; assay type: ADME, organism-based, Canis lupus familiaris
[20] = Intrinsic clearance in Beagle dog at 2 mg/kg, iv by LC-MS/MS analysis; assay type: ADME, organism-based, Canis lupus familiaris; details: in vivo
[21] = MRT in Beagle dog at 2 mg/kg, iv by LC-MS/MS analysis; assay type: ADME, organism-based, Canis lupus familiaris; details: in vivo
[22] = Oral bioavailability in Beagle dog by LC-MS/MS analysis; assay type: ADME, organism-based, Canis lupus familiaris; details: in vivo
[23] = molecular target: Leucine-rich repeat serine/threonine-protein kinase 2 (Homo sapiens) (UniProt Q5S007); assay: Ex vivo inhibition of LRRK2 in human PBMC assessed as unbound concentration required for reduction in LRRK2 phosphorylation at Ser935 residue incubated for 90 mins by MSD assay; assay type: cell-based
Chain of Leucine-rich repeat serine/threonine-protein kinase 2 (Homo sapiens) (Q5S007 whole entry): as the sequence (Q5S007 whole entry G2019S, the tested form may be a part) above, with S2019G counted along it

[24] = Dissociation constant, pKa of the compound; assay type: physicochemical

| Compound | IC50 [1] [nM] | fIC50 [2] [nM] | CLint scaled at 0.3 µM [3] [mL/min/kg] | CLint scaled at 0.3 µM [4] [mL/min/kg] | clearance [5] [mL/min/kg] | CL [6] [mL/min/kg] | MRT [7] [h] | efflux ratio at 3 h, up to 1 µM (rat Mdr1a (P-gp) [9]) | Papp A→B at 3 h, up to 1 µM (rat Mdr1a (P-gp) [10]) [×10⁻⁶ cm/s] | IC50 [8] [nM] | also measured |
| --- | --- | --- | --- | --- | --- | --- | --- | --- | --- | --- | --- |
| Cc1c(Nc2ncc3cccc(C4CC4)c3n2)cnn1C1CCOCC1 | 1 | 31 | 162 | 898 | 34 | 1219 | 0.6 | 0.65 | 36 |  | logD [11]: 2.7 |
| Cc1c(Nc2ncc3ccc(-c4ccn[nH]4)cc3n2)cnn1C1CCOCC1 | 1.7 | 114 |  |  |  |  |  |  |  |  |  |
| CCNc1nc(Nc2cc(F)c(C(=O)N3CCOCC3)cc2OC)ncc1C(F)(F)F |  |  |  |  |  |  |  |  |  |  | efflux ratio at 3 h, up to 1 µM (human MDR1 (P-gp)): 0.9; Kp uu at 4 h, 2.5 µM [12]: 0.5; Kp uu at 2 h [13]: 0.6 |
| Cc1c(Nc2ncc3ccc(C4(C#N)CC4)cc3n2)cnn1C1CCOCC1 | 0.7 | 19 |  |  |  |  |  | 6.4 | 34 |  |  |
| Clc1cc2cnc(Nc3cnn(C4CC4)c3Cl)nc2cc1N1CCN(C2COC2)CC1 |  | 71 | 63 | 168 | 42 | 1800 | 1.1 | 0.9 | 33 | 24000 |  |
| Cc1c(Nc2ncc3ccc(C4CCN(C5COC5)CC4)cc3n2)cnn1C1CCOCC1 | 6800 |  |  |  |  |  |  |  |  |  |  |
| Cc1c(Nc2ncc3cc(Cl)c(C4CCN(C5COC5)CC4)cc3n2)cnn1C1CC1 | 0.65 | 9.9 | 49 | 457 |  |  |  | 3 | 35 | 15000 | Kp uu at 4 h, 2.5 µM [12]: 0.2; clearance [14]: 14 mL/min/kg; CL [15]: 260 mL/min/kg; MRT [16]: 2.1 h; CLint scaled at 0.3 µM [17]: 294 mL/min/kg; clearance [19]: 23 mL/min/kg; CL [20]: 477 mL/min/kg; MRT [21]: 2 h; bioavailability [18]: 26%; bioavailability [22]: 38%; efflux ratio at 3 h, up to 1 µM (mouse Bcrp): 4.2 |
| c1cc(C2CC2)c2nc(Nc3cnn(C4CCOCC4)c3)ncc2c1 | 15 | 90 |  |  |  |  |  |  |  |  |  |
| FC1CN(C2COCC2F)CCC1c1cc2nc(Nc3cnn(C4CC4(F)F)c3Cl)ncc2cc1Cl (stereo not given) | < 0.6 | 1.9 | 720 | 956 | 12 | 2771 | 4.8 | 1.6 | 23 | 8600 |  |
| F[C@@H]1CNCC[C@H]1c1cc2nc(Nc3cnn([C@@H]4CC4(F)F)c3Cl)ncc2cc1Cl |  |  |  |  | 22 | 1890 | 1.8 |  |  | 570 | fIC50 [23]: 9 nM; pKa [24]: 7.79 |
| Clc1cc2cnc(Nc3cnn(C4CC4)c3Cl)nc2cc1C1CCN(C2COC2)CC1 | < 0.6 | 4.8 | 57 | 464 | 19 | 1025 | 1.5 | 0.5 | 26 | 4600 | efflux ratio at 3 h, up to 1 µM (mouse Bcrp): 0.6 |
| CNc1nc(Nc2cn(C(C)(C)C#N)nc2C)ncc1C(F)(F)F [DNL-201] |  |  |  |  |  |  |  |  |  |  | efflux ratio at 3 h, up to 1 µM (human MDR1 (P-gp)): 0.8; Kp uu at 4 h, 2.5 µM [12]: 0.6; Kp uu at 2 h [13]: 0.46 |
| Cc1c(Nc2ncc3ccc(N4C(=O)OC[C@@H]4C)cc3n2)cnn1C1CCOCC1 | < 0.6 | 3.2 | < 6 | 17 | 9 | 26 | 1.6 | 35 | 27 |  | logD [11]: 1.4 |

Now from value to molecule, other results behind:

| IC50 [1] [nM] | fIC50 [2] [nM] | CLint scaled at 0.3 µM [3] [mL/min/kg] | CLint scaled at 0.3 µM [4] [mL/min/kg] | clearance [5] [mL/min/kg] | CL [6] [mL/min/kg] | MRT [7] [h] | efflux ratio at 3 h, up to 1 µM (rat Mdr1a (P-gp) [9]) | Papp A→B at 3 h, up to 1 µM (rat Mdr1a (P-gp) [10]) [×10⁻⁶ cm/s] | Compound | IC50 [8] [nM] | also measured |
| --- | --- | --- | --- | --- | --- | --- | --- | --- | --- | --- | --- |
| < 0.6 | 2.5 | 471 | 2640 | 22 | 2494 | 3.3 |  |  | FC1CN(C2CCOC2)CCC1c1cc2nc(Nc3cnn(C4CC4(F)F)c3Cl)ncc2cc1Cl (stereo not given) | 35000 |  |
| < 0.6 | 6.9 |  |  |  |  |  | 7.2 | 34 | Cc1c(Nc2ncc3ccc(C4(C#N)CC45CC5)cc3n2)cnn1C1CCOCC1 (stereo not given) |  |  |
| < 0.6 | 6.1 | 186 | 210 | 20 | 1545 | 2.7 | 1.2 | 31 | FC1CN(C2COC2)CCC1c1cc2nc(Nc3cnn(C4CC4(F)F)c3Cl)ncc2cc1Cl (stereo not given) | 18300 |  |
| < 0.6 | 4.3 | 175 | 329 |  |  |  | 1.3 | 32 | FC1CN(C2COC2)CCC1c1cc2nc(Nc3cnn(C4CC4)c3Cl)ncc2cc1Cl (stereo not given) | 14000 | Kp uu at 4 h, 2.5 µM [12]: 0.5; clearance [14]: 18 mL/min/kg; CL [15]: 1200 mL/min/kg; MRT [16]: 3.8 h; CLint scaled at 0.3 µM [17]: 1300 mL/min/kg; bioavailability [18]: 54%; efflux ratio at 3 h, up to 1 µM (mouse Bcrp): 1.3 |
| < 0.6 | 7.4 | 212 | 336 | 18 | 755 | 1.8 | 1 | 33 | FC(F)Cn1ncc(Nc2ncc3cc(Cl)c(C4CCN(C5COC5)CC4F)cc3n2)c1Cl (stereo not given) |  |  |
| < 0.08 | 1.7 | 405 | 1960 |  |  |  | 0.9 | 31 | N#CC1(c2ccc3cnc(Nc4cnn(C5CCOCC5)c4Cl)nc3c2)CC12CC2 (stereo not given) |  |  |
